{
  "source": "paper PMC10108886",
  "about": "(Cancer Research Communications, 2023)",
  "assay_in_all_cases": "cells",
  "key": {"DU145": {"system": "DU145", "details": "Homo sapiens, DU-145, read-out: EC50 of RBN2397 (nM), Ligand* (Conc.)=BBQ (10 nM); AR Status=(-); growth inhibition with PARP7-inducing ligand; partial maximal effect", "text": "(§1) VCaP cells encode wild-type (WT) AR and the V7 variant, and are used to model castrate resistance owing to amplification of AR. CWR22Rv1 is an informative model for therapy resistance mediated by AR splice variants that lack the ligand-binding domain. PC3-AR is a PC3 derivative engineered to express WT AR, which drives a gene expression profile that overlaps other prostate lines ([18]). PC3 cells are AR negative, resistant to therapies based on androgen deprivation, highly motile, and used to study prostate cancer metastasis. […] It is well established that androgen treatment is growth repressive in some prostate cancer lines. […] A G1 effect of androgen is, however, apparent in VCaP and PC3-AR cells (Supplementary Fig. S1A). […] FICZ is a naturally occurring tryptophan photoproduct, while 10-Chloro-7H-benzimidazo[2,1-a]benz[de]isoquinolin-7-one (10-CI-BBQ; here termed BBQ) is a synthetic molecule. FICZ and BBQ induce AHR target genes through a chaperone-mediated mechanism ([26]). […] In A, D–H, each condition reflects eight biological replicates, error bars show the SD, and ****, P < 0.0001; ***, P < 0.001; **, <0.01. […] The experiments were performed in triplicate, error bars show the SD, and ***, P < 0.001; **, <0.01, *, <0.05; ns, not significant. C, Phase contrast microscopy showing the morphology of cells treated with AHR agonist and RBN2397. […] A similar image for CWR22Rv1 cells with vehicle alone (−) is used in both Fig. 2C and 4C. […] F, RBN2397 dose–response curve of VCaP cells treated with BBQ."}, "PC3AR": {"system": "PC3AR", "details": "PC3/AR, read-out: EC50 of RBN2397 (nM), Ligand* (Conc.)=R1881 (0.2 nM); AR Status=WT; growth inhibition with PARP7-inducing ligand; partial maximal effect", "text": "as §1"}, "VCaP": {"system": "VCaP", "details": "Homo sapiens, VCaP, AR Status=WT and V7, growth inhibition with PARP7-inducing ligand, partial maximal effect", "text": "as §1"}, "CWR22Rv1(shPARP7)": {"system": "CWR22Rv1(shPARP7)", "details": "AR Status=H874Y and V7, growth inhibition with PARP7-inducing ligand, partial maximal effect", "text": "as §1"}, "PC3AR(shParp7)": {"system": "PC3AR(shParp7)", "details": "PC3/AR, AR Status=WT, growth inhibition with PARP7-inducing ligand, partial maximal effect", "text": "as §1"}, "PC3AR(shGFP)": {"system": "PC3AR(shGFP)", "details": "PC3/AR, AR Status=WT, growth inhibition with PARP7-inducing ligand, partial maximal effect", "text": "as §1"}, "CWR22Rv1(shGFP)": {"system": "CWR22Rv1(shGFP)", "details": "AR Status=H874Y and V7, growth inhibition with PARP7-inducing ligand, partial maximal effect", "text": "as §1"}, "PC3": {"system": "PC3", "details": "Homo sapiens, AR Status=(-), growth inhibition with PARP7-inducing ligand, partial maximal effect", "text": "as §1"}, "[1]": {"details": "CWR22Rv1, read-out: EC50 of RBN2397 (nM), Ligand* (Conc.)=BBQ (10 nM)"}, "[2]": {"details": "CWR22Rv1, read-out: EC50 of RBN2397 (nM), Ligand* (Conc.)=R1881 (2 nM)"}, "[3]": {"details": "read-out: EC50 of RBN2397 (nM), Ligand* (Conc.)=BBQ (10 nM)"}, "[4]": {"details": "read-out: EC50 of RBN2397 (nM), Ligand* (Conc.)=R1881 (0.2 nM)"}},
  "note": "Like-named read-outs stand apart in the source and are kept apart here.",
  "data": [
    {"compound": "C[C@@H](COCCC(=O)N1CCN(c2ncc(C(F)(F)F)cn2)CC1)Nc1cn[nH]c(=O)c1C(F)(F)F", "note": "[RBN2397]", "values": [
      {"measurement": "EC50", "setting": "DU145", "result": 5.2, "unit": "nM"},
      {"measurement": "EC50", "setting": "PC3AR", "result": 2.4, "unit": "nM"},
      {"measurement": "EC50", "setting": "VCaP; read-out: EC50 of RBN2397 (nM), Ligand* (Conc.)=BBQ (100 nM)", "result": 34.2, "unit": "nM"},
      {"measurement": "EC50", "setting": "VCaP; read-out: EC50 of RBN2397 (nM), Ligand* (Conc.)=R1881 (2 nM)", "result": 3.4, "unit": "nM"},
      {"measurement": "EC50", "setting": "CWR22Rv1(shPARP7); [1]", "result": 1.7, "unit": "nM"},
      {"measurement": "EC50", "setting": "CWR22Rv1(shPARP7); [2]", "result": 39.6, "unit": "nM"},
      {"measurement": "EC50", "setting": "PC3AR(shParp7); [3]", "result": 5.6, "unit": "nM"},
      {"measurement": "EC50", "setting": "PC3AR(shParp7); [4]", "result": 5.7, "unit": "nM"},
      {"measurement": "EC50", "setting": "PC3AR(shGFP); [3]", "result": 8.4, "unit": "nM"},
      {"measurement": "EC50", "setting": "PC3AR(shGFP); [4]", "result": 3.4, "unit": "nM"},
      {"measurement": "EC50", "setting": "CWR22Rv1(shGFP); [1]", "result": 0.6, "unit": "nM"},
      {"measurement": "EC50", "setting": "CWR22Rv1(shGFP); [2]", "result": 4.8, "unit": "nM"},
      {"measurement": "EC50", "setting": "PC3; PC-3, read-out: EC50 of RBN2397 (nM), Ligand* (Conc.)=BBQ (10 nM)", "result": 10, "unit": "nM"},
      {"measurement": "EC50", "setting": "PC3; PC-3, read-out: EC50 of RBN2397 (nM), Ligand* (Conc.)=R1881 (0.2 nM)", "result": 9.4, "unit": "nM"}
    ]}
  ]
}
